Experiments:
[1] = Dispersibility evaluation: transmission through PVDF 0.45 μm filter in pH 4.5 buffer, measured by HPLC; type: physicochemical; details: 38° C.
Description: Confirmation Experiment by Difference in Particle Size and Concentration in Weakly Acidic Solvent of Metal Phase Transformation Compound and Peptide (PalGHK)
PVDF 0.45 μm filter is used
Measurement is performed using HPLC with stirring for 24 hours.
Temperature conditions similar to the temperature inside the body (38° C.) is maintained
The solvent is the same as the pH 4.5 buffer, and experiment is performed at 500 or 1000 ppm based on the peptide content of the sample raw material.
Concentration is calculated based on the peptide content (approximately 71%) in the metal compound.
Concentration is calculated based on the peptide content (about 83%) in the peptide (palGHK).

[2] = Particle size by DLS (Zetasizer Nano ZS90); type: physicochemical; details: dispersant water, 25° C.
Description: Instrument: Zetasizer Nano ZS90
The particle size of the powder was measured by Zetasizer of Malvern Panalytical Ltd. (UK) using […], and the particle size was measured after dispersing the sample in tertiary distilled water using the model name NANO ZS ZS90.

Which “dispersibility (filter transmission)” value ([1]; 500 ppm based on peptide content, time 0 hr) does the source give for palmitoyl-GHK [palGHK] here?
The value was 0%.

What about the “dispersibility (filter transmission)” value ([1]; 500 ppm based on peptide content, time 2 hr) of the same substance?
The value was 21.3%.

What about the “dispersibility (filter transmission)” value ([1]; 500 ppm based on peptide content, time 4 hr) of the same substance?
Its value is 27.4%.

And the “dispersibility (filter transmission)” value ([1]; 500 ppm based on peptide content, time 6 hr)?
The value was 37.6%.

And the “dispersibility (filter transmission)” value ([1]; 500 ppm based on peptide content, time 8 hr)?
The value was 39.8%.

And the “dispersibility (filter transmission)” value ([1]; 500 ppm based on peptide content, time 10 hr)?
The value was 37.8%.

What about the “dispersibility (filter transmission)” value ([1]; 500 ppm based on peptide content, time 12 hr) of the same substance?
The value was 35.6%.

And the “dispersibility (filter transmission)” value ([1]; 500 ppm based on peptide content, time 12 hr, listed as peptide)?
Its value is “about 35%”.

What about the “dispersibility (filter transmission)” value ([1]; 1000 ppm based on peptide content, time 0 hr) of the same substance?
The value was 0%.

And the “dispersibility (filter transmission)” value ([1]; 1000 ppm based on peptide content, time 2 hr)?
The value was 18.7%.

What about the “dispersibility (filter transmission)” value ([1]; 1000 ppm based on peptide content, time 4 hr) of the same substance?
Its value is 27.8%.

What about the “dispersibility (filter transmission)” value ([1]; 1000 ppm based on peptide content, time 6 hr) of the same substance?
The value was 33.2%.

What about the “dispersibility (filter transmission)” value ([1]; 1000 ppm based on peptide content, time 8 hr) of the same substance?
The value was 42.9%.

What about the “dispersibility (filter transmission)” value ([1]; 1000 ppm based on peptide content, time 10 hr) of the same substance?
Its value is 47.8%.

And the “dispersibility (filter transmission)” value ([1]; 1000 ppm based on peptide content, time 12 hr)?
The value was 47.8%.

And the “dispersibility (filter transmission)” value ([1]; 1000 ppm based on peptide content, time 12 hr, listed as peptide)?
Its value is “about 47%”.

And the “average size (DLS) of transmitted particles” value ([2]; 500 ppm)?
The value was 13.09 nm.

What about the “average size (DLS) of transmitted particles” value ([2]; 1000 ppm) of the same substance?
Its value is 12.18 nm.
